{"source": "paper PMC4729137", "about": "“Functional analysis of androgen receptor mutations that confer anti-androgen resistance identified in circulating cell-free DNA from prostate cancer patients” (Genome Biology, 2016)", "key": {"D880E-AR": {"target": "T1, D880E-AR (Homo sapiens, UniProt P10275, D880E)", "T1 sequence (P10275 1-920 D880E)": "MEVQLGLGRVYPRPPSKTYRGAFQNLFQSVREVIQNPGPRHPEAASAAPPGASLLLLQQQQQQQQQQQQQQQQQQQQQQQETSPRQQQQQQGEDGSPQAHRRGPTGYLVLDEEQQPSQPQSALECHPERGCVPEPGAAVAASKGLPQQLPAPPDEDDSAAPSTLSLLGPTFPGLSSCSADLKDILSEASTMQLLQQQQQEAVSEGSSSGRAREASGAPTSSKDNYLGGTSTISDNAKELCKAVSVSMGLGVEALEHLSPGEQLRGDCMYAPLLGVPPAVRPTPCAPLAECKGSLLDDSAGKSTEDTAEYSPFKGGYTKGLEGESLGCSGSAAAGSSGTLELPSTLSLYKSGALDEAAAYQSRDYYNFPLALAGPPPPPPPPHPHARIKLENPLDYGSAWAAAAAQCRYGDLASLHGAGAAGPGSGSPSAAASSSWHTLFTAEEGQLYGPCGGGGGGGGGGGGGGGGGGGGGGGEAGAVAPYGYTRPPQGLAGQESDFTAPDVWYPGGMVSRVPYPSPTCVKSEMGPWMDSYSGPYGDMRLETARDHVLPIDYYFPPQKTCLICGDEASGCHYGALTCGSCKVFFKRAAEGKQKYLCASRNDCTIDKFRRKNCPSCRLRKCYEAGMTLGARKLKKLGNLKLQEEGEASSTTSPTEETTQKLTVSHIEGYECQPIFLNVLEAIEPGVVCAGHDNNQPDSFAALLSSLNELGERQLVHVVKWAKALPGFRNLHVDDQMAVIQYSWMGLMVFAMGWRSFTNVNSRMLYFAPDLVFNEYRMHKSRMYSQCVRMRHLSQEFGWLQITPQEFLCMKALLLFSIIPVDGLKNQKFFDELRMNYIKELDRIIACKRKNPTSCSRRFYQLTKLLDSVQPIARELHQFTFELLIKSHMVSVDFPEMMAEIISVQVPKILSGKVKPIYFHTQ", "assay_type": "cell-based", "details": "AR mutant D880E; transfected PC3 cells; 0.1 nM R1881; drug 0 to 50 μM", "from_the_text": "(§1) Full-length human AR (WT-AR) was encoded on a pcDNA3.1 expression plasmid (Life technologies). The LBD point mutations (single and multiple) were generated using the QuikChange II Site-Directed Mutagenesis Kit (Agilent Technologies) as per manufacturer’s instructions using WT-AR as the template. The mutagenic oligonucleotide primers were designed individually with the desired mutation in the middle of the primer with approximately 10 to 15 bases of correct sequence on both sides.\n(§2) PC3 cells were seeded and transfected as described above. […] A non-stimulated/no R1881 control was used. After 24 h, cells were lysed and AR-dependent luciferase activity was quantified. Each concentration was assayed in quadruplicate n = 4, with a biological replicate of n = 3. Results were averaged and normalized by expressing them as a percentage of WT AR activity."}, "M896T-AR": {"target": "T2, M896T-AR (Homo sapiens, UniProt P10275, M896T)", "T2 sequence (P10275 1-920 M896T)": "T1 sequence (P10275 1-920 D880E) with E880D, M896T", "assay_type": "cell-based", "details": "AR mutant M896T; transfected PC3 cells; 0.1 nM R1881; drug 0 to 50 μM", "from_the_text": "as §1, §2"}}, "note": "Changes are numbered by the printed parent chain.", "data": [{"smiles": "CC(C)(O)C(=O)Nc1ccc([N+](=O)[O-])c(C(F)(F)F)c1", "note": "[Hydroxyflutamide, hydroxyflutamide]", "values": [{"measurement": "Agonist response to treatment", "setting": "D880E-AR", "value": "Partial"}, {"measurement": "Agonist response to treatment", "setting": "M896T-AR", "value": "Partial"}]}]}
